According to PubChem BioAssay AID179 (DTP/NCI, 2004):
Values joined by “and” are separate entries in the source; they are usually repeats but may differ in a detail not shown here. Equal entries are not always repeated. Active and inactive are the calls of the source.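 How the source made its calls: active means compounds giving half or more protection of infected cells from virus-caused growth loss, again on retest; inactive means the rest.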

Test system: CEM cells HIV-1 protection, formazan growth assay
Assay: NCI AIDS Antiviral Assay
Conditions: for IC50: measured here: growth of uninfected CEM cells
How it was run: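 Protection of CEM cells against HIV-1 was scored from cell growth (soluble formazan) across five concentrations, with parallel uninfected cells. Lack of protection may reflect toxicity.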

| Compound | EC50 [µM] | IC50 | outcome |
| --- | --- | --- | --- |
| Cc1ccc(/C=C2\Sc3scc(-c4ccccc4)[n+]3C2=O)cc1 | > 200 | 89.1 µM |  |
| O=C1[C@H]2C(c3ccccc3)=NN(C(=O)c3ccccc3)[C@H]2C(=O)N1c1ccccc1 |  |  | inactive |
| O=C(COc1ccc(OCC(=O)N2C(=O)CSC2=Nc2ccccc2)cc1)N1C(=O)CSC1=Nc1ccccc1 | > 200 | 25.7 µM |  |
| COC(CNC(=O)NC(=O)CCC(=O)O)[CH2][Hg][n]1cnc2c1c(=O)n(C)c(=O)n2C (centres undefined) | > 200 | 85.1 µM |  |
| CNCCC=C1c2ccccc2CCc2ccccc21 | > 200 | 28.8 µM and 33.1 µM |  |
| COc1ccc2c(c1)CSCC2=O | > 513 | > 200 µM |  |
| CCCN=C(NC(=O)c1ccc(Cl)cc1)SC | > 200 | > 200 µM |  |
| COC1=CC(C)C2C[C@H]3O[C@H](O)C[C@H]4C(C)C(=O)C(O)C([C@@]2(C)C1=O)[C@@]34C (some centres undefined) |  |  | inactive |
| N=C(N)c1ccc(N=Nc2ccc(N)cc2N)cc1 | > 200 | 51.3 µM |  |
| C#CCNC(Cc1cnc[nH]1)C(=O)O (centres undefined) | > 200 | > 200 µM |  |
| O=C(NCCCNC(=O)c1ccc2cc(O)ccc2c1)c1ccc2cc(O)ccc2c1 |  |  | inactive |
| COc1ccc(OC)c(C[P+](c2ccccc2)(c2ccccc2)c2ccccc2)c1 | > 200 | 1.2 µM |  |
| NC(CS/C=C\C(=O)O)C(=O)O (centres undefined) | > 27.5 | > 27.5 µM |  |
| CC(=O)NC(CCC(=O)C=[N+]=N)C(=O)O (centres undefined) | > 200 | 29.5 µM |  |
| OC1CCN2Cc3ccccc3N=C12 (centres undefined) | > 200 | > 200 µM |  |
| Cc1cccc(C)c1NC(=O)C(=O)C(C(=O)c1ccccc1-c1ccccc1)C1OC(=O)c2ccccc21 (centres undefined) | > 135 | 24.5 µM |  |
| O=C1C(CN2CCOCC2)CCCC1CN1CCOCC1 (centres undefined) | > 4270 | 1.35 µM | inactive |
| O=[N+]([O-])c1ccc2c3c(cccc13)S(=O)(=O)O2 | > 200 | 85.1 µM |  |
| CC(C)OP(=O)(OC(C)C)C(=Nc1ccncc1)NNc1ccc([N+](=O)[O-])cc1 | > 61.7 | > 61.7 µM |  |
| Nc1nc(N)c(N)c(Nc2ccccc2)n1 | > 200 | 20.4 µM |  |
| NNc1cnn(-c2ccccc2)c(=O)c1Cl | > 57.5 | 4.57 µM |  |
| O=[N+]([O-])/C(C(Cl)=C(Cl)Cl)=C(/Sc1ccccc1)N1CCCCC1 | > 195 | 12.9 µM |  |

| Compound | EC50 [µM] | IC50 | outcome |
| --- | --- | --- | --- |
| CC1(C)OCC2(CO1)CSCCCSCC1(COC(C)(C)OC1)CSCCCSC2 | > 10.5 | > 10.5 µM |  |
| CC(C)=C1C2CCC1C1CSCC21 (centres undefined) | > 115 | > 115 µM |  |
| COc1ccc(NC(=O)C2C(=O)N(c3ccc(OC)cc3)C(=O)/C2=N\NC(N)=O)cc1 (centres undefined) | > 61.7 | > 61.7 µM |  |
| O=C1CCC2(c3ccc(F)cc3)Nc3cc([N+](=O)[O-])ccc3N12 (centres undefined) | > 16.6 | > 16.6 µM |  |
| CO[C@@]12[C@H](COC(N)=O)C3=C(C(=O)C(C)=C(N)C3=O)N1C[C@@H]1N[C@@H]12 | > 17.4 | 0.794 µM |  |
| O=C1[C@@H]2C(c3ccccc3F)=NO[C@@H]2C(=O)N1c1ccc(Cc2ccc(N3C(=O)[C@H]4C(c5ccccc5F)=NO[C@H]4C3=O)cc2)cc1 | > 8.32 | > 8.32 µM |  |
| Cc1c(Cc2ccccc2)c(=O)oc2cc(O)ccc12 | > 97.7 | 93.3 µM |  |
| C[C@@H]1CC(=O)C2CCCC1C2=O (some centres undefined) |  |  | inactive |
| CC(=O)N/C(=C\c1ccc(/C=C(\NC(C)=O)c2nc3ccc(Cl)cc3[nH]2)cc1)c1nc2ccccc2[nH]1 |  |  | inactive |
| CN1CCN(C(=O)CCNC(=O)Cc2ccc(C(=O)c3ccccc3)cc2)CC1 | > 200 | 64.6 µM |  |
| CCCCCC(=O)Nc1nc[nH]c1C(N)=O | > 200 | > 200 µM |  |
| C/C(O)=C(\C=N\C(=S)Nc1ccccc1)C(=O)Nc1ccc(Cl)cc1 |  |  | inactive |
| COc1c(Cl)cc(Cl)cc1S(=O)O |  |  | inactive |
| Nc1cccnc1NCC1(CO)CCCC1 | > 200 | > 200 µM |  |
| COc1ccc(C2CC(c3ccc4ccccc4c3O)=NN2C(C)=O)cc1OC (centres undefined) | > 50.1 | > 50.1 µM |  |
| CCOCNC=O | > 2400 | 1480 µM |  |
| C=CC(C)(C)c1[nH]cnc1/C=C1\NC(=O)[C@H](C(C)C)NC1=O | > 200 | 2.4 µM |  |
| Cn1nc2ccc([N+](=O)[O-])c(Cn3nnc4ccccc43)c2n1 | > 200 | 58.9 µM |  |
| Clc1ccc(Nc2ncco2)cc1Cl | > 200 | 107 µM |  |
| CN(C)NP(=O)(NN(C)C)NN(C)C | > 200 | > 200 µM |  |
| CCOC(=O)c1ccc(N=C2C(=S)N(c3ccc(C(=O)OCC)cc3)C(=N)N2/N=C/c2ccccc2)cc1 | > 200 | 3.24 µM |  |
| CCC[CH2][Sn]([CH2]CCC)([O]C(=O)c1c(F)cccc1F)[O]C(=O)c1c(F)cccc1F | > 9.55 | 1.91 µM |  |

| Compound | EC50 [µM] | IC50 | outcome |
| --- | --- | --- | --- |
| COc1cc(C(C2=C(O)c3ccccc3C(=O)C2=O)C2=C(O)c3ccccc3C(=O)C2=O)cc(OC)c1OC | > 200 | 72.4 µM |  |
| CCOC(=O)C(NC(=O)NCc1ccc(F)cc1)C(F)(F)F (centres undefined) | > 200 | 81.3 µM |  |
| COc1cc2c(oc(=O)c3c4oc([Si](C)(C)C)cc4cc(OC)c23)c2cccc(OCc3ccccc3)c12 | > 0.501 | > 0.501 µM |  |
| CC(C)c1oc2ccccc2c1C(=O)c1ccc(O)cc1 | > 148 | 13.2 µM |  |
| CCn1c2ccccc2c2c3ncc4cccn4c3ccc21 | > 200 | 135 µM |  |
| CCOc1cc2c[n+](C)c3c4cc(OC)c(OC)cc4ccc3c2cc1OC | > 33.1 | > 33.1 µM |  |
| C=CCNC(=O)NCCCC(NC(C)=O)C(=O)NCc1ccccc1 (centres undefined) | > 72.4 | > 72.4 µM |  |
| O=[N+]([O-])c1ccc(C2=NOC(c3ccccc3)N2C23CC4CC(CC(C4)C2)C3)cc1 (centres undefined) | > 200 | 107 µM |  |
| O=c1n(-c2ccccc2)c(=O)n2c(=O)n(-c3ccccc3)c(=O)n12 | > 100 | > 100 µM |  |
| CN1C(=O)C=C(C=Nc2ccc(-c3ccccc3)cc2)C2CCCCC21 (centres undefined) | > 200 | 2.29 µM |  |
| NCCNCCNCc1c2ccccc2c(CNCCNCCN)c2ccccc12 | 5.89 | 39.8 µM |  |
| O=c1[nH]c(=O)c2nnoc2[nH]1 | > 200 | 75.9 µM |  |
| COC(=O)C1(C#N)C(C)(C)N=C(c2ccccc2)C12CCCCC2 (centres undefined) | > 200 | 93.3 µM |  |
| COC(=O)C(CC(=O)Nc1ccc(Cl)c(Cl)c1)C(=O)C(=O)NC1C2CC3CC(C2)CC1C3 (centres undefined) | > 70.8 | > 70.8 µM |  |
| S=C1NC(/C=C/c2ccccc2)N2C(=S)NC(/C=C\c3ccccc3)N12 (centres undefined) |  |  | inactive |
| CCOC(=O)c1c2cccccc-2nc1Nc1cccc2c(C)ccnc12 |  |  | inactive |
| COC1/C=C/OC2(C)Oc3c(C)c(O)c4c(O)c(c(C=NNC(=O)C(CO)(c5ccccc5)c5ccccc5)c(O)c4c3C2=O)NC(=O)/C(C)=C/C=C/C(C)C(O)C(C)C(O)C(C)C(OC(C)=O)C1C (centres undefined) | > 200 | 32.4 µM |  |
| NC1=NS(=O)(=O)Nc2nc(-c3ccc(Cl)cc3)c(-c3ccc(Cl)cc3)nc21 | > 61.7 | > 61.7 µM |  |
| Cc1nn(C(=O)c2ccc(Cl)cc2)c2c1C(/C=C/c1ccccc1)SC(N)=N2 (centres undefined) | 60.3 | 158 µM |  |
| CC1OC(OC2C(O)COC(OC3C(C)OC(OC4C(OC(=O)[C@]56CCC(C)(C)C[C@@H]5C5=CCC7[C@@]8(C)C[C@H](O)[C@H](OC9OC(CO)C(O)C(O)C9O)[C@@](C)(CO)[C@@H]8CC[C@@]7(C)[C@]5(C)CC6)OCC(O)C4O)C(O)C3OC3OCC(O)(CO)C3O)C2O)C(O)C(O)C1O (some centres undefined) | > 30.2 | 17.8 µM |  |
| CC(=O)OC1SC(OC(C)=O)C2OC(=O)OC12 (centres undefined) | > 871 | 155 µM |  |
| Nc1nc(Cl)cc(OCC2CC(O)(CO)C2)n1 (centres undefined) | > 200 | > 200 µM |  |

| Compound | EC50 [µM] | IC50 | outcome |
| --- | --- | --- | --- |
| CC12CP(=O)(c3ccccc3)CC1c1ccccc1C2c1ccccc1 (centres undefined) | > 200 | 31.6 µM |  |
| O=c1ccn(CC2(CO)CC(Cc3ccccc3)C2)c(=O)[nH]1 (centres undefined) | > 200 | > 200 µM |  |
| CC(C)(C)c1cc(CCC(=O)Nc2ccc(Cl)cc2)nc(NC#N)n1 | > 692 | > 692 µM |  |
| CC(C)(C)c1cc(O)c2c(c1O)C(=O)CCC2 |  |  | inactive |
| CCOC(=O)c1ccc(NC(NC(=O)CC)(C(F)(F)F)C(F)(F)F)cc1 | > 200 | 24.5 µM |  |
| COc1ccc(C(=O)C#Cc2cnc(OC)nc2OC)cc1 | > 2 | 0.363 µM |  |
| O=P(O)(OCCc1ccccc1)Oc1ccccc1O | > 200 | > 200 µM |  |
| NC(=O)Cc1nc2c(N)ncnc2n1C1OC(CO)C(O)C1O (centres undefined) | > 200 | > 200 µM |  |
| O=C(NCc1cc(CNC(=O)c2cccc(O)c2O)cc(CNC(=O)c2cccc(O)c2O)c1)c1cccc(O)c1O | > 200 | 1.95 µM |  |
| CC1(CC(=O)O)C(=O)CCCC1=O |  |  | inactive |
| OC/C=C/[C@H](OCc1ccccc1)[C@H](/C=C/CO)OCc1ccccc1 | > 200 | 57.5 µM |  |
| O=C(CCl)N1CCN(c2ccccn2)CC1 | > 1050 |  |  |
| N#Cc1cccc(C2SCc3nc4ccccc4n32)c1 (centres undefined) | 19.5 | 60.3 µM |  |
| O=c1c(N(CCO)CCO)cn(C(c2ccccc2)(c2ccccc2)c2ccccc2)c(=O)n1C(c1ccccc1)(c1ccccc1)c1ccccc1 | > 200 | 3.02 µM |  |
| Nc1nc(N)c(N=O)c(N)n1 | > 200 | 170 µM |  |
| NC(=Nc1ccccc1)C(F)(F)F | > 200 | > 200 µM |  |
| Clc1ccc(SCCCCCCCCCCSc2ccc(Cl)cc2)cc1 | > 23.4 | > 23.4 µM |  |
| Cc1nc2ccc(Cl)cc2c(Cl)c1CCCl | > 200 | 10.7 µM |  |
| CC(Oc1ccc(OCC2CCCCC2)cc1)C(=O)OCC(=O)c1ccc(-c2ccccc2)cc1 (centres undefined) | > 20.9 | > 20.9 µM |  |
| O=C1N/C(=C\[N+](=O)[O-])c2ccccc21 | > 501 | 263 µM |  |
| NC(=S)N/N=C(/CCN1CCCC1)CC(C1=C(O)C2=CCCCC2OC1=O)c1ccccc1 (centres undefined) | > 135 | > 135 µM |  |
| COC(=O)[C@@H]1[C@@H]2NC(=S)N[C@@]1(C)Oc1ccccc12 |  |  | inactive |
